Laboratory results: ChEMBL document CHEMBL5143596, “The Design and Optimization of Monomeric Multitarget Peptides for the Treatment of Multifactorial Diseases” (J Med Chem, 2022)
pKi: −log10 of the molar value.

Columns and labels:
[1] = Metabolic stability in rat plasma assessed as half life; assay type: ADME, cell-free
Mu-type opioid receptor = Mu-type opioid receptor (Homo sapiens, UniProt P35372); assay: Binding affinity at MOR (unknown origin) assessed as inhibition constant
Sequence of Mu-type opioid receptor (P35372 whole entry): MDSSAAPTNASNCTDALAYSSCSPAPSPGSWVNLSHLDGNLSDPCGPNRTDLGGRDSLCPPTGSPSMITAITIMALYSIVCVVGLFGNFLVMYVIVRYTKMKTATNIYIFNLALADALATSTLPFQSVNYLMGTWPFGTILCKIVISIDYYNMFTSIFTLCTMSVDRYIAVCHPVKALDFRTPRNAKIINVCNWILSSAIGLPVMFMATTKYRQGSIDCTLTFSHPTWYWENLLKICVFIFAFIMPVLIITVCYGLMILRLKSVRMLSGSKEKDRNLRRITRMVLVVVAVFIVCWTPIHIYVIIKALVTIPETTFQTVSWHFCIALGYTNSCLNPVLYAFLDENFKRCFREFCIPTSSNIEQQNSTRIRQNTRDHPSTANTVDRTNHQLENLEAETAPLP

Cc1cc(O)cc(C)c1C[C@H](N)C(=O)N[C@H](C)C(=O)NCC(=O)N(C)[C@@H](Cc1ccccc1)C(=O)N1CCC[C@H]1C(=O)N[C@@H](CC(C)C)C(=O)N[C@@H](Cc1c[nH]c2ccccc12)C(=O)NCc1cc(C(F)(F)F)cc(C(F)(F)F)c1
half-life [1]: > 24 h
pKi (Mu-type opioid receptor): 9.00
